These are literature values, as cited in US20120195848A1, “STRONTIUM-CONTAINING BIOACTIVE BONE CEMENT” (The University of Hong Kong, priority 2011, published 2012).

Where two headings read alike, the source gives them in different places.

For `O=S(=O)([O-])[O-].[Ba+2]` [BaSO4, reference compound], the dissolution rate (20° C.) is recorded as 0.0002448 g/100 mL.

In the case of `O=S(=O)([O-])[O-].[Sr+2]` [SrSO4, strontium sulfate], for the setting “25° C.”, the dissolution rate was 0.0135 g/100 mL.

As for `O=C([O-])[O-].[Sr+2]` [SrCO3, strontium carbonate], where the note is “18° C.”, the dissolution rate is recorded as 0.0011 g/100 ml.
